# Test results as given in ChEMBL document CHEMBL3797052 (Eur J Med Chem, 2016).
# Tested on: not listed separately
# Assay: Antiproliferative activity against human UO31 cells assessed as cell growth at 10^-6 M after 48 hrs by sulforhodamine B assay
# Format: functional
# Details: UO-31, 48 h, read-out: Activity
row,SMILES,growth at 1 µM [%]
1,CNC(=O)c1cc(Oc2ccc3nc(NC(=O)c4cc(C(F)(F)F)cc(C(F)(F)F)c4)sc3c2)ccn1,78

# Tested on: not listed separately
# Assay: Antiproliferative activity against human COLO205 cells assessed as cell growth at 10^-6 M after 48 hrs by sulforhodamine B assay
# Format: functional
# Details: COLO 205, 48 h, read-out: Activity
row,SMILES,growth at 1 µM [%]
1,CNC(=O)c1cc(Oc2ccc3nc(NC(=O)c4cc(C(F)(F)F)cc(C(F)(F)F)c4)sc3c2)ccn1,99

# Tested on: SR
# Assay: Antiproliferative activity against human SR cells assessed as growth inhibition after 48 hrs by sulforhodamine B assay
# Format: functional
# Details: not given
SMILES,GI50 [µM],LC50 [µM],TGI [µM]
CNC(=O)c1cc(Oc2ccc3nc(NC(=O)c4cc(C(F)(F)F)cc(C(F)(F)F)c4)sc3c2)ccn1,3.37,> 100,15

# Tested on: not listed separately
# Assay: Antiproliferative activity against human COLO205 cells assessed as cell growth at 10^-4 M after 48 hrs by sulforhodamine B assay
# Format: functional
# Details: COLO 205, 48 h, read-out: Activity
row,SMILES,growth at 100 µM [%]
1,CNC(=O)c1cc(Oc2ccc3nc(NC(=O)c4cc(C(F)(F)F)cc(C(F)(F)F)c4)sc3c2)ccn1,-88

# Tested on: A498
# Assay: Antiproliferative activity against human A498 cells assessed as cell growth at 10^-6 M after 48 hrs by sulforhodamine B assay
# Format: functional
# Details: A498, 48 h, read-out: Activity
row,SMILES,growth at 1 µM [%]
1,CNC(=O)c1cc(Oc2ccc3nc(NC(=O)c4cc(C(F)(F)F)cc(C(F)(F)F)c4)sc3c2)ccn1,66

# Target: CYP3A4 (Homo sapiens, UniProt P08684)
# Assay: Inhibition of recombinant human CYP3A4 assessed as remaining enzyme activity using CYP3A4 blue as substrate at 10 uM after 5 mins in presence of NADP by fluorescence plate reader analysis
# Format: ADME
# Details: recombinant human CYP3A4, probe CYP3A4 blue, read-out: Activity
# CYP3A4, sequence (P08684 whole entry): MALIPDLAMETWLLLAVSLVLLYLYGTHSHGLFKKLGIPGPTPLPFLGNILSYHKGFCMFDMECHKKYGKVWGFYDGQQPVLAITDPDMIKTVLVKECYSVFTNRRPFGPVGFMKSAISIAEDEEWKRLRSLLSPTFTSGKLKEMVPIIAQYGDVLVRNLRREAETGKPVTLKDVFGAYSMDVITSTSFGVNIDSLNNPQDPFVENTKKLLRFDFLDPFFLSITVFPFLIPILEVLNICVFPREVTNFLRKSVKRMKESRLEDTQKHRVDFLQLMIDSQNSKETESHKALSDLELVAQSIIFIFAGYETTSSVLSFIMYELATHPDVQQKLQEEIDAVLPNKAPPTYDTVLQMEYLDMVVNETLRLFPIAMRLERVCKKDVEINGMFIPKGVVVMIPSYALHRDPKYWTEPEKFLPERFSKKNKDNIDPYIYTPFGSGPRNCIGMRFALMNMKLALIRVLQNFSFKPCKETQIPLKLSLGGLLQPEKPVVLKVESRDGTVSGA
row,SMILES,"activity at 5 min, 10 µM [%]"
1,CNC(=O)c1cc(Oc2ccc3nc(NC(=O)c4cc(C(F)(F)F)cc(C(F)(F)F)c4)sc3c2)ccn1,72.9

# Tested on: not listed separately
# Assay: Antiproliferative activity against human IGROV1 cells assessed as cell growth at 10^-6 M after 48 hrs by sulforhodamine B assay
# Format: functional
# Details: IGROV-1, 48 h, read-out: Activity
row,SMILES,growth at 1 µM [%]
1,CNC(=O)c1cc(Oc2ccc3nc(NC(=O)c4cc(C(F)(F)F)cc(C(F)(F)F)c4)sc3c2)ccn1,90

# Tested on: MCF7
# Assay: Antiproliferative activity against human MCF7 cells assessed as cell growth at 10^-7 M after 48 hrs by sulforhodamine B assay
# Format: functional
# Details: MCF7, 48 h, read-out: Activity
row,SMILES,growth at 0.1 µM [%]
1,CNC(=O)c1cc(Oc2ccc3nc(NC(=O)c4cc(C(F)(F)F)cc(C(F)(F)F)c4)sc3c2)ccn1,89

# Tested on: NCI-H23
# Assay: Antiproliferative activity against human NCI-H23 cells assessed as growth inhibition after 48 hrs by sulforhodamine B assay
# Format: functional
# Details: NCI-H23, 48 h
SMILES,GI50 [µM],LC50 [µM],TGI [µM]
CNC(=O)c1cc(Oc2ccc3nc(NC(=O)c4cc(C(F)(F)F)cc(C(F)(F)F)c4)sc3c2)ccn1,3.37,> 100,17.7

# Tested on: not listed separately
# Assay: Antiproliferative activity against human Caki1 cells assessed as growth inhibition after 48 hrs by sulforhodamine B assay
# Format: functional
# Details: CAKI-1, 48 h
SMILES,GI50 [µM],TGI [µM]
CNC(=O)c1cc(Oc2ccc3nc(NC(=O)c4cc(C(F)(F)F)cc(C(F)(F)F)c4)sc3c2)ccn1,2.75,10.7

# Same assay, conditions: CAKI-1, 48 h, read-out: LC50 (the source's name)
row,SMILES,CC50 [µM]
1,CNC(=O)c1cc(Oc2ccc3nc(NC(=O)c4cc(C(F)(F)F)cc(C(F)(F)F)c4)sc3c2)ccn1,62.3

# Tested on: not listed separately
# Assay: Antiproliferative activity against human SNB75 cells assessed as growth inhibition after 48 hrs by sulforhodamine B assay
# Format: functional
# Details: SNB-75, 48 h
SMILES,GI50 [µM],TGI [µM]
CNC(=O)c1cc(Oc2ccc3nc(NC(=O)c4cc(C(F)(F)F)cc(C(F)(F)F)c4)sc3c2)ccn1,3.13,14.8

# Same assay, conditions: SNB-75, 48 h, read-out: LC50 (the source's name)
row,SMILES,CC50 [µM]
1,CNC(=O)c1cc(Oc2ccc3nc(NC(=O)c4cc(C(F)(F)F)cc(C(F)(F)F)c4)sc3c2)ccn1,96.5

# Tested on: SK-MEL-2
# Assay: Antiproliferative activity against human SK-MEL-2 cells assessed as cell growth at 10^-7 M after 48 hrs by sulforhodamine B assay
# Format: functional
# Details: SK-MEL-2, 48 h, read-out: Activity
row,SMILES,growth at 0.1 µM [%]
1,CNC(=O)c1cc(Oc2ccc3nc(NC(=O)c4cc(C(F)(F)F)cc(C(F)(F)F)c4)sc3c2)ccn1,97

# Tested on: not listed separately
# Assay: Antiproliferative activity against human SNB75 cells assessed as cell growth at 10^-7 M after 48 hrs by sulforhodamine B assay
# Format: functional
# Details: SNB-75, 48 h, read-out: Activity
row,SMILES,growth at 0.1 µM [%]
1,CNC(=O)c1cc(Oc2ccc3nc(NC(=O)c4cc(C(F)(F)F)cc(C(F)(F)F)c4)sc3c2)ccn1,77

# Tested on: 786-0
# Assay: Antiproliferative activity against human 786-0 cells assessed as cell growth at 10^-6 M after 48 hrs by sulforhodamine B assay
# Format: functional
# Details: 786-0, 48 h, read-out: Activity
row,SMILES,growth at 1 µM [%]
1,CNC(=O)c1cc(Oc2ccc3nc(NC(=O)c4cc(C(F)(F)F)cc(C(F)(F)F)c4)sc3c2)ccn1,91
